Usually IC50 stands for the midpoint of a concentration-inhibition curve.

Counter-ions that a name gives are not always drawn. Active and inactive are the calls of the source. The rule behind the calls is not given here.

The subject of one assay is COLO 205. Briefly: Cytotoxicity against human COLO205 assessed as inhibition of cell growth. It is filed as functional, cell-based.
The test system of the next assay is HT-1080. In words: Cytotoxicity against human HT1080 assessed as inhibition of cell growth. It is filed as functional, cell-based.
A further assay deals with HOP-62. Briefly: Cytotoxicity against human HOP62 assessed as inhibition of cell growth. It is filed as functional, cell-based.
A short description of assay [1]: Cytotoxicity against human DWD assessed as inhibition of cell growth. Type of assay: functional.
For assay [2], the target named is DNA topoisomerase 2-alpha (Rattus norvegicus) (UniProt P41516). In words: Inhibition of rat brain topoisomerase 2 assessed as relaxation of supercoiled pBR322 DNA.
Chain of DNA topoisomerase 2-alpha (Rattus norvegicus) (P41516 whole entry): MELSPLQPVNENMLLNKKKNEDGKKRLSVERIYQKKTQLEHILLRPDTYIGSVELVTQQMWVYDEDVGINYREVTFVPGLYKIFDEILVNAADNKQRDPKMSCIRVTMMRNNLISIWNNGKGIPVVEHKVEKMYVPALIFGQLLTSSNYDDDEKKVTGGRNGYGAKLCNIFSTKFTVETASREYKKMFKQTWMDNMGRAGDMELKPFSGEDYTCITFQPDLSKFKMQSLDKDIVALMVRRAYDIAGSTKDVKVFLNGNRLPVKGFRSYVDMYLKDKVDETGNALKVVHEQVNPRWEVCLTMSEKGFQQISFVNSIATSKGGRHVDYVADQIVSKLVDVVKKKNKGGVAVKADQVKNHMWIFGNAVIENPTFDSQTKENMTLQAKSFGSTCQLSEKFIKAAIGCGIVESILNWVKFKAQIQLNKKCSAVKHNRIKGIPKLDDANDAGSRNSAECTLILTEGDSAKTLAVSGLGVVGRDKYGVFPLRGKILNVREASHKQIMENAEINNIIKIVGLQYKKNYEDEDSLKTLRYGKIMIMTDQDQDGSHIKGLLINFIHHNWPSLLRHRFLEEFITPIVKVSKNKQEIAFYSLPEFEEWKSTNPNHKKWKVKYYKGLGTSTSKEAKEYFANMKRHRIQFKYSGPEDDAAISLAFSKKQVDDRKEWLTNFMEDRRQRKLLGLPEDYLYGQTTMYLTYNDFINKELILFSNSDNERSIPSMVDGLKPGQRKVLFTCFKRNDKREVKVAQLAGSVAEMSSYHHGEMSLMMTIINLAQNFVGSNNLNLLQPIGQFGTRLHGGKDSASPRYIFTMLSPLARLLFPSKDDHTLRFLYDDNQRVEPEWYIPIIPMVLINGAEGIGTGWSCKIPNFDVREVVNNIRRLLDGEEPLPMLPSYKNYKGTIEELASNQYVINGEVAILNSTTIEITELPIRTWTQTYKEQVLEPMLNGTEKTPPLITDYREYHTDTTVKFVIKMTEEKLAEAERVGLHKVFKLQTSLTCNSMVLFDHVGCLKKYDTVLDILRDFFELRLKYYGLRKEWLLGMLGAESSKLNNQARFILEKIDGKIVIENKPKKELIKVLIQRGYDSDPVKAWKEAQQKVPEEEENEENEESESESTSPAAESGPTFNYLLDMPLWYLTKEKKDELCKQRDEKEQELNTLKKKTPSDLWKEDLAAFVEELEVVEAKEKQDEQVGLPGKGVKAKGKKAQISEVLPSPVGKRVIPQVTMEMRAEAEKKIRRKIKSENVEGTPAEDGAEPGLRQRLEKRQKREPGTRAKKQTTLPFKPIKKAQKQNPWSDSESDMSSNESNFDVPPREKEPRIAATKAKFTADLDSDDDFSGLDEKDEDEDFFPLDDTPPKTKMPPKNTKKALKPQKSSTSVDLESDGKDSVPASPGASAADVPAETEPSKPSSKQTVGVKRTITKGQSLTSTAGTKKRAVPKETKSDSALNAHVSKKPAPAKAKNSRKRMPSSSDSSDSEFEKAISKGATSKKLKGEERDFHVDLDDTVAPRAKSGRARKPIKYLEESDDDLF

On to `COc1cc([C@@H]2c3cc4c(cc3[C@@H](Nc3ccc(-c5nc6ccccc6s5)c(Cl)c3)[C@H]3COC(=O)[C@H]23)OCO4)cc(OC)c1O`, for which the IC50 in the assay on COLO 205 was 8.3 µM; in the assay on HT-1080, more than 80 µM; with HOP-62 it was 8.6 µM; in assay [1], 6.5 µM.
Take `COc1cc([C@@H]2c3cc4c(cc3[C@@H](Nc3ccc(-c5nc6ccccc6s5)cc3)[C@H]3COC(=O)[C@H]23)OCO4)cc(OC)c1OC`: the inhibition result in assay [2] was “Active”. Besides, the IC50 was 8.1 µM with COLO 205, 8.2 µM in the assay with HT-1080, more than 80 µM in the assay with HOP-62 and 22 µM in assay [1].
`COc1ccc2nc(-c3ccc(N[C@@H]4c5cc6c(cc5[C@@H](c5cc(OC)c(OC)c(OC)c5)[C@H]5C(=O)OC[C@@H]54)OCO6)cc3)sc2c1`: the IC50 was 7 µM in the assay with COLO 205, 9.5 µM in the assay on HT-1080, 15.2 µM in the assay with HOP-62 and 5.2 µM in assay [1].
The matching figures for `COc1cccc2c1C(=O)c1c(O)c3c(c(O)c1C2=O)C[C@@](O)(C(=O)CO)C[C@@H]3O[C@H]1C[C@H](N)[C@H](O)[C@H](C)O1` [DOXORUBICIN HYDROCHLORIDE]: 5.1 µM, 4.7 µM, 5.4 µM and 2.8 µM.
As for `COc1cc([C@@H]2c3cc4c(cc3[C@@H](Nc3ccc(-c5nc6ccccc6s5)cc3)[C@H]3COC(=O)[C@H]23)OCO4)cc(OC)c1O`, in assay [2], the inhibition result was “Active”. The IC50 in the assay on COLO 205 came to 2.7 µM; in the assay with HT-1080, 9.7 µM; in the assay on HOP-62, 30.1 µM; in assay [1] it was 2.3 µM.
Turning to `COc1ccc2nc(-c3ccc(N[C@@H]4c5cc6c(cc5[C@@H](c5cc(OC)c(O)c(OC)c5)[C@H]5C(=O)OC[C@@H]54)OCO6)cc3)sc2c1`, the inhibition result in assay [2] was “Active”.
Consider `COc1cc([C@@H]2c3cc4c(cc3[C@@H](Nc3ccc(-c5nc6c(Cl)cccc6s5)cc3)[C@H]3COC(=O)[C@H]23)OCO4)cc(OC)c1OC`, for which the IC50 in the assay with COLO 205 was 7.1 µM; with HT-1080, 9.1 µM; in the assay on HOP-62 it was 60.3 µM; in assay [1], 7.3 µM.
On to `COc1cc([C@@H]2c3cc4c(cc3[C@@H](Nc3ccc(-c5nc6ccccc6s5)cc3Br)[C@H]3COC(=O)[C@H]23)OCO4)cc(OC)c1O`, for which the inhibition result in assay [2] was “Active”.
On to `COc1cc([C@@H]2c3cc4c(cc3[C@@H](Nc3ccc(-c5nc6c(Cl)cccc6s5)cc3)[C@H]3COC(=O)[C@H]23)OCO4)cc(OC)c1O`, for which the IC50 was 8.3 µM in the assay with COLO 205, more than 80 µM in the assay on HT-1080, 10.1 µM in the assay with HOP-62 and 9.1 µM in assay [1].
The corresponding values for `COc1cc([C@@H]2c3cc4c(cc3[C@H](O)[C@H]3COC(=O)[C@H]23)OCO4)cc(OC)c1OC` [PODOFILOX] are 5 µM, 8.1 µM, 13.1 µM and 6.1 µM.

These data come from ChEMBL document CHEMBL1641597, “An efficient one-pot synthesis of benzothiazolo-4β-anilino-podophyllotoxin congeners: DNA topoisomerase-II inhibition and anticancer activity” (Bioorg Med Chem Lett, 2011).
